Source: patent US20220233624A9, “ANTI-CANCER AND ANTI-PROLIFERATIVE COMPOSITIONS, AND METHODS FOR THEIR USE IN TREATING CANCER” (Natreon, Inc., priority 2020, published 2022)
Where “and” joins values, the source holds several entries; their conditions need not be identical. Equal values may be shown once. Read-outs that look alike come from different tables or passages of the source.

Assays:
[1] = test system: Breast Cancer PDCs, ER/PR− Her2+ (Her2+); test: Anti-proliferation assay on breast cancer Her2+ PDCs; type: cell-based, human; conditions: drug alone @ 10 uM; 10 µM
Protocol: The outermost rows/columns of the plates were filled with PBS (pH 7.4) to avoid an edge-effect and were considered as blanks. Standardized aqueous extracts identified in Table 2 were prepared in main stock solutions by dissolving 1 mg of extract in 1 ml PBS (phosphate-buffered saline, pH 7.4). […] The plate was incubated in a CO2 incubator for 0/N incubation for 24 hours. […] Once extracts were added to incubated cells and mixed gently, the plate was given a brief spin and incubated in the CO2 incubator for 72 hours. The plate was removed from the incubator and 10 ul of detection reagent (CellTiterGlo®; Promega Corporation, Wisconsin, USA) added to each well of the 384 well plate. […] The assay described above is a two-dimensional (2D) assay.

[2] = test system: Acute Promyelocytic Leukemia PDCs (APL-SB 46120); test: Anti-proliferation assay on APL subtype AML PDCs; type: cell-based; conditions: Homo sapiens
Protocol: In this Example, AML drugs were used as disease specific controls.
The AML PDCs evaluated below were an Acute Promyelocytic Leukemia (APL, APML) subtype, APL-SB 46120, from a human subject.
IC25 values were calculated using IC50 and hill slope. […] The drugs were used in these concentrations on the new APL subtype cells as described further below. […]

[3] = test system: Glioma SB 32833 Glioblastoma Grade IV patient derived cells; test: Anti-proliferation assay on glioma PDCs SB 32833; type: cell-based; conditions: Homo sapiens, drug @ 10 uM
Protocol: The anti-cancer activity of AyuFlex®, Capros®, and Ayuric® was further tested on two other glioma PDCs taken from 2-3 different subjects (SB 6129, SB 32833 (person)). […] Also, the anti-cancer activity of AyuFlex®, Capros®, and Ayuric® was further tested on existing glioblastoma cell line U87 MG, to allow comparisons with other compositions known in the art. AyuFlex®, Capros®, and/or Ayuric® were incubated with the new PDC lines and the U87 MG cell line for 72 hours, as described in Example I above.
Table 68 relates to FIG. 31, a graph showing the efficacy of AyuFlex®, Capros®, and/or Ayuric® on Glioma SB 32833 Glioblastoma Grade IV patient derived cells, in a combination study.

AML cell line HL60 = test: Anti-proliferation assay on HL60 AML cells; type: cell-based; conditions: for inhibition at 10 µM: 72 h, Plate 1
Protocol: 2500 cells were plated per well in 384 well plates. […] CellTiter Glo was used as a detection reagent. Extracts were incubated with the AML HL60 cells for 72 hours.

[4] = test system: TN breast cancer PDCs SB 30750; test: Anti-proliferation assay on TN breast cancer PDCs SB 30750; type: cell-based; conditions: Homo sapiens
Protocol: In this Example, AyuFlex®, Capros®, and Ayuric® were each applied to different PDCs than previous tests, TN breast cancer PDCs SB 30750, and tested via the anti-proliferation assay described above. […] Incubation times were 72 hours.

[5] = test system: TN Breast Cancer cell line MDAMB-231; test: Anti-proliferation assay on MDAMB-231 cells (72 h and 120 h); type: cell-based; conditions: Homo sapiens, MDA-MB-231, 10 uM
Protocol: Also, AyuFlex®, Capros®, and Ayuric® were tested in the anti-proliferative assay discussed above in the TN Breast Cancer cell line MDAMB-231. AyuFlex®, Capros®, and Ayuric® were incubated for 72 hours and 120 hours. The dose-response efficacy of AyuFlex®, Capros®, and Ayuric® after a 72-hour period of incubation was similar to that observed after a 120-hour period of incubation with the MDAMB-231 cells. Without being bound by theory, possibly this was due to saturation of cell growth at the 120-hour time-point.

[6] = test system: Prostate cancer (PC-3) cells; test: Anti-proliferation assay on prostate cancer cells; type: cell-based; conditions: Homo sapiens
Protocol: (§1) Cells were plated at 1.25 k/well in 384 well plates. […] Anti-proliferative assays were generally performed as discussed in Example I above, in triplicate, with detection reagent CellTiterGlo. Tables 80-82 show data for controls for assays on prostate cancer (PC-3 cells), and that the data passed quality control parameters. Tables 83-85 show data for controls for assays on ovarian cancer (OVCAR-3 cells), and that the data passed quality control parameters.

[7] = test system: Ovarian cancer (OVCAR-3) cells; test: Anti-proliferation assay on ovarian cancer cells; type: cell-based; conditions: Homo sapiens
Protocol: as §1

[8] = test system: Pancreatic cancer (Panc-1) cells; test: Anti-proliferation assay on pancreatic cancer cells; type: cell-based; conditions: Homo sapiens
Protocol: Cells were plated at 1.25 k/well in 384 well plates. […] Anti-proliferative assays were generally performed as described in Example I above, in triplicate, with detection reagent CellTiterGlo. Tables 98-99 show data for controls for assays on histiocytic lymphoma (U-937) cells, and that the data passed quality control parameters. Tables 101-102 show data for controls for assays on pancreatic cancer (Panc-1) cells, and that the data passed quality control parameters. […] The assay is generally as described in Example I.

[9] = 10 uM, 72 h, read-out: % Inhibition n1
[10] = 10 uM, 72 h, read-out: % Inhibition n2
[11] = 10 uM, 72 h, read-out: % Inhibition n3
[12] = 10 uM, 72 h, read-out: % Inhibition Average (SD)
[13] = drug 10 uM, read-out: inhibition

`COc1cccc2c1C(=O)c1c(O)c3c(c(O)c1C2=O)C[C@@](O)(C(=O)CO)C[C@@H]3O[C@H]1C[C@H](N)[C@H](O)[C@H](C)O1` [Doxorubicin, doxorubicin] was tested, and the “% Inhibition Avg” value [1] was 60% and 96%, the “% Inhibition, single replicates” value [1] was 62% and 58% and 95% and 97% and the inhibition at 10 µM ([2]; Plate 1 quality control, read-out: % Inhibition Average) was 96%. For the same compound, the inhibition at 10 µM ([2]; Plate 1 quality control, read-out: % Inhibition n1) was 97%, the inhibition at 10 µM ([2]; Plate 1 quality control, read-out: % Inhibition n2) was 96% and the inhibition at 10 µM ([2]; Plate 1 quality control, read-out: % Inhibition n3) was 95%. It also gave an inhibition at 10 µM ([2]; Plate 2 quality control, read-out: % Inhibition Average) of 97%, an inhibition at 10 µM ([2]; Plate 2 quality control, read-out: % Inhibition n1) of 98% and an inhibition at 10 µM ([2]; Plate 2 quality control, read-out: % Inhibition n2) of 97%. For the same compound, the inhibition at 10 µM ([2]; Plate 2 quality control, read-out: % Inhibition n3) was 97%, the inhibition at 10 µM ([3]; read-out: % Inhibition Avg) was 87% and the inhibition at 10 µM ([3]; read-out: % Inhibition n1) was 91%. For the same compound, the inhibition at 10 µM ([3]; read-out: % Inhibition n2) was 86%, the inhibition at 10 µM ([3]; read-out: % Inhibition n3) was 86% and the IC25 (AML cell line HL60; HL60 AML cells, potential dosing for further experiments) was 59 nM. The inhibition at 3 µM (AML cell line HL60; Homo sapiens, HL-60) was ≥ 90%, the inhibition at 10 µM (AML cell line HL60; Homo sapiens, HL-60, read-out: % Inhibition Average (SD)) was 0% and the inhibition at 10 µM (AML cell line HL60; Homo sapiens, HL-60, read-out: % Inhibition n1) was 100%. For the same compound, the inhibition at 10 µM (AML cell line HL60; Homo sapiens, HL-60, read-out: % Inhibition n2) was 100%, the inhibition at 10 µM (AML cell line HL60; Homo sapiens, HL-60, read-out: % Inhibition n3) was 100% and the IC50 (AML cell line HL60; Homo sapiens, HL-60, dose-response curve, FIG. 35) was 79 nM. The inhibition at 10 µM ([4]; 10 uM, 72 h, read-out: % Inhibition Avg) was 68%, the inhibition at 10 µM [4, 9] was 78% and the inhibition at 10 µM [4, 10] was 68%. It also gave an inhibition at 10 µM [4, 11] of 58%, an inhibition at 10 µM ([4]; read-out: % Inhibition Average (SD)) of 68% and an inhibition at 10 µM ([4]; read-out: % Inhibition n1) of 78%. The inhibition at 10 µM ([4]; read-out: % Inhibition n2) was 68%, the inhibition at 10 µM ([4]; read-out: % Inhibition n3) was 58% and the inhibition at 10 µM ([5]; 72 hour incubation, read-out: % Inhibition Avg) was 75%. The inhibition at 10 µM ([5]; 72 hour incubation, read-out: % Inhibition n1) was 78%, the inhibition at 10 µM ([5]; 72 hour incubation, read-out: % Inhibition n2) was 73% and the inhibition at 10 µM ([5]; 72 hour incubation, read-out: % Inhibition n3) was 73%. It also gave an inhibition at 10 µM ([5]; 120 hour incubation, read-out: % Inhibition Avg) of 92%, an inhibition at 10 µM ([5]; 120 hour incubation, read-out: % Inhibition n1) of 94% and an inhibition at 10 µM ([5]; 120 hour incubation, read-out: % Inhibition n2) of 91%. The inhibition at 10 µM ([5]; 120 hour incubation, read-out: % Inhibition n3) was 92%, the inhibition at 10 µM [6, 12] was 70% and the inhibition at 10 µM [6, 9] was 70%. The inhibition at 10 µM [6, 10] was 70%, the inhibition at 10 µM [6, 11] was 71% and the inhibition at 10 µM [6, 13] was 70%. It also gave an inhibition at 10 µM [7, 12] of 76%, an inhibition at 10 µM [7, 9] of 74% and an inhibition at 10 µM [7, 10] of 75%. The inhibition at 10 µM [7, 11] was 79%, the inhibition at 10 µM [7, 13] was 76% and the inhibition at 10 µM [8, 12] was 94%. The inhibition at 10 µM [8, 9] was 94%, the inhibition at 10 µM [8, 10] was 94% and the inhibition at 10 µM [8, 11] was 95%. The inhibition at 10 µM [8, 13] was 94%.
